The source made the active and inactive calls.
Assays:
[1] = molecular target: T1, Alkaline phosphatase, tissue-nonspecific isozyme (Homo sapiens, UniProt P05186); assay: TNAP enzyme inhibition by screening hits, dose response, selectivity assay for mouse IAP inhibitor project, biochemical, human TNAP, uHTS hits (AID 488906); format: functional
T1 sequence (P05186 whole entry): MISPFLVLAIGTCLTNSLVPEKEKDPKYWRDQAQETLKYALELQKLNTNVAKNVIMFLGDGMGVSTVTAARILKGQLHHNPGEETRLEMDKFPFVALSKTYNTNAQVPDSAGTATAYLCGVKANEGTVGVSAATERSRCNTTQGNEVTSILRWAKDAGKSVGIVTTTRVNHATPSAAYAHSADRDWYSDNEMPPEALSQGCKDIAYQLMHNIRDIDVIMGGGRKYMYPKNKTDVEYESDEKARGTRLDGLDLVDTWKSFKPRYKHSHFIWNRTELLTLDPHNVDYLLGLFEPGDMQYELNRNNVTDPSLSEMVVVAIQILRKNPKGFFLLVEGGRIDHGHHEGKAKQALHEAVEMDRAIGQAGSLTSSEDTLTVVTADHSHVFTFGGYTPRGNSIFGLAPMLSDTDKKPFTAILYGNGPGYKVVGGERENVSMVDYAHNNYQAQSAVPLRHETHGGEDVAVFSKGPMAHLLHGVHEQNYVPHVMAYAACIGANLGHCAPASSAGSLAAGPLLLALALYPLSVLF

[2] = molecular target: T2, Intestinal-type alkaline phosphatase (Homo sapiens, UniProt P09923); assay: activation of human intestinal alkaline phosphatase – biochemical, luminescent, uHTS hits, set 2, dose response (AID 488817); format: functional;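 also: potency of activators that raise enzyme activity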
T2 sequence (P09923 whole entry): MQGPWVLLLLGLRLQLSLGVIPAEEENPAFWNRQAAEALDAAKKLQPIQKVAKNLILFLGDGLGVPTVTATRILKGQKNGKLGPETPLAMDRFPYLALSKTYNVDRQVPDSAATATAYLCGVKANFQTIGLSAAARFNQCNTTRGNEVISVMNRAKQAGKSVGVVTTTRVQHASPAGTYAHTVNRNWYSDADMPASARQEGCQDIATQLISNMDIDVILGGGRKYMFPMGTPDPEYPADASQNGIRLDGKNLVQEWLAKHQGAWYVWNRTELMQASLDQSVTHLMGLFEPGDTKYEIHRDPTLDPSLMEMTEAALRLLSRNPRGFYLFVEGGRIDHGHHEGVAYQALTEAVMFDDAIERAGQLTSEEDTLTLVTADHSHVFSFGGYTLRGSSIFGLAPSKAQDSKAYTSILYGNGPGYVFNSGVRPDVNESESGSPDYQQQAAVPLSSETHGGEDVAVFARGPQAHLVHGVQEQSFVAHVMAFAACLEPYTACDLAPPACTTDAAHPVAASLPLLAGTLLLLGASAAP

[3] = molecular target: T2, Intestinal-type alkaline phosphatase; assay: inhibition of human intestinal alkaline phosphatase – biochemical, dose response (AID 488876); format: functional
[4] = molecular target: Eukaryotic translation initiation factor 4H (Homo sapiens, UniProt Q15056); assay: eIF4H binding inhibition – biochemical, uHTS, fluorescence polarization, translation initiation inhibitor project, primary screen (AID 2012)
[5] = molecular target: T1, Alkaline phosphatase, tissue-nonspecific isozyme; assay: activation of tissue-nonspecific alkaline phosphatase – biochemical, TNAP isozyme, human IAP uHTS hits, selectivity assay for human IAP activator project, dose response (AID 488886); format: functional;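 also: potency of compounds raising TNAP activity as a selectivity check on IAP activators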
[6] = molecular target: T3, Intestinal-type alkaline phosphatase (Mus musculus, UniProt P24822); assay: PubChem AID 488874; format: functional
T3 sequence (P24822 whole entry): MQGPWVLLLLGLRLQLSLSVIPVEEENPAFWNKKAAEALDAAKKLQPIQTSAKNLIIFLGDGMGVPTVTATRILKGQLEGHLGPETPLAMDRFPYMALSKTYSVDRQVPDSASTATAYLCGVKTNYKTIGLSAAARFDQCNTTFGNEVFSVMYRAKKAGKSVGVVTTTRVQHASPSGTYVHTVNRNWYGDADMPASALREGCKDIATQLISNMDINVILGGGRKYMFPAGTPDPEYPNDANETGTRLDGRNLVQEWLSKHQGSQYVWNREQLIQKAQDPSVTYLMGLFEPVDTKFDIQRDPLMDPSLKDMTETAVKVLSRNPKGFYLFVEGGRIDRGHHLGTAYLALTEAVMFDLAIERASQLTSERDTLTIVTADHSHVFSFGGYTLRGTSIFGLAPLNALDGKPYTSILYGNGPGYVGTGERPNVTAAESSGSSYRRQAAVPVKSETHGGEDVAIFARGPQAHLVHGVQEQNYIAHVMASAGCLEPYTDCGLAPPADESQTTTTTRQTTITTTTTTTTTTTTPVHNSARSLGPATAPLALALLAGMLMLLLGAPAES

[7] = molecular target: T3, Intestinal-type alkaline phosphatase; assay: PubChem AID 488785; format: functional
[8] = molecular target: Polyadenylate-binding protein 1 (Homo sapiens, UniProt P11940); assay: blockers of PABP interaction with poly(A) – biochemical, fluorescence polarization, […] (AID 2014)
Chain of Polyadenylate-binding protein 1 (P11940 whole entry): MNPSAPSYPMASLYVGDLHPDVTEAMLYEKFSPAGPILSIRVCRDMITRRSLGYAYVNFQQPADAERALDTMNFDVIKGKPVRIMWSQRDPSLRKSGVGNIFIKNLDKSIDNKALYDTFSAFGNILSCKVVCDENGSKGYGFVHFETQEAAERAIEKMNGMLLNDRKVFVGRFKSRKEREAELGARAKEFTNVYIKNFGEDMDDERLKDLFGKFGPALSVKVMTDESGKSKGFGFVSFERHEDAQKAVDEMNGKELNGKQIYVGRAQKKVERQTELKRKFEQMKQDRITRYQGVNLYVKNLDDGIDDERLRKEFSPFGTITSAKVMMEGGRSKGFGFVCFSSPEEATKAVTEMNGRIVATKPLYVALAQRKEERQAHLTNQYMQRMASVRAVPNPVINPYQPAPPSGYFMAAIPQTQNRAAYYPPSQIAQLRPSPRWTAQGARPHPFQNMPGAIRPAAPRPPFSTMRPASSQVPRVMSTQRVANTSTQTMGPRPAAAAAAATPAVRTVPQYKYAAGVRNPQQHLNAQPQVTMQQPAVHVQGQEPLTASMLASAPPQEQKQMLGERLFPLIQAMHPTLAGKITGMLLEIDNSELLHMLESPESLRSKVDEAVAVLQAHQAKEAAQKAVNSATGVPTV

[9] = molecular target: T2, Intestinal-type alkaline phosphatase; assay: human intestinal alkaline phosphatase activators, dose response, biochemical, luminescence, uHTS hits (AID 463120); format: functional
[10] = molecular target: T4, Streptokinase A (Streptococcus pyogenes serotype M1, UniProt P10520); assay: viability-normalized secreted streptokinase activity reduction – plasminogen activation absorbance, OD405, dose response (AID 1914); format: functional, Streptococcus pyogenes M1 GAS;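 also: secreted streptokinase activity via plasminogen activation per viability signal from cell pellet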
T4 sequence (P10520 whole entry): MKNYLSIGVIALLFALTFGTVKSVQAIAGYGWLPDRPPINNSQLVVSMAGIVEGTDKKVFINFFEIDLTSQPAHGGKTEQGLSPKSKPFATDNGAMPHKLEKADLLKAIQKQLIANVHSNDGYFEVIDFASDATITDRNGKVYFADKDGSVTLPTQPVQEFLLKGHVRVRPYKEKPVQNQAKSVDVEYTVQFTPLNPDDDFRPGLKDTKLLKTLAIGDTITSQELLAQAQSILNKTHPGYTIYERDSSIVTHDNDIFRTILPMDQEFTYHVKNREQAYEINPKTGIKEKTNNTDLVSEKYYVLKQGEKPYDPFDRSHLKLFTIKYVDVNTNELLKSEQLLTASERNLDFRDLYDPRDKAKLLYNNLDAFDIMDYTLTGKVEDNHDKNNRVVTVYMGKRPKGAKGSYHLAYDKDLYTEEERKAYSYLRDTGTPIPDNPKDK

[11] = molecular target: Latent membrane protein 1 (Human herpesvirus 4 (strain B95-8), UniProt P03230); assay: LMP1 TES1 pathway selectivity over dsRED control – imaging, HEK293T, dual-color eGFP/dsRED, cherry-picks, selectivity assay for LMP1 NF-kB inhibitor project, dose response (AID 588398); format: functional, cell-based
Chain of Latent membrane protein 1 (P03230 whole entry): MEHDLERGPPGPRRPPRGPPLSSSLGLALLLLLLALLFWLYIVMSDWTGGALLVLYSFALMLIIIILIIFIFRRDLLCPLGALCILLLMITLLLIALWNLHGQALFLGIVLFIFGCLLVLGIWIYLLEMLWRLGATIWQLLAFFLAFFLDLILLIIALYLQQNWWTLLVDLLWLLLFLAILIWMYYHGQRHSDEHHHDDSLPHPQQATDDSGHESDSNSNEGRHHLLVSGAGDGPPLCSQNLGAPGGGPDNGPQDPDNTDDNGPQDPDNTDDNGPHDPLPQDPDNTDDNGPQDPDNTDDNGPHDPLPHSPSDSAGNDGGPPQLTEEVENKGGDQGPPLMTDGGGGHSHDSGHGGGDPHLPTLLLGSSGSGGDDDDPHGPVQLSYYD

[12] = test system: INS1; assay: INS-1E survival protection against cytokine death – cell-based, luminescence, retest, dose response (AID 449756); format: functional; details: Rattus norvegicus;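 also: cell death triggered by IL-1 beta plus TNF-alpha plus IFN-gamma mixture; protective hits raise ATP signal compared with cytokine alone wells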
[13] = molecular target: Nonstructural protein 1 (Influenza A virus, UniProt Q194T2); format: functional, Influenza A virus (A/California/07/2009(H1N1))
Chain of Nonstructural protein 1 (Q194T2 whole entry): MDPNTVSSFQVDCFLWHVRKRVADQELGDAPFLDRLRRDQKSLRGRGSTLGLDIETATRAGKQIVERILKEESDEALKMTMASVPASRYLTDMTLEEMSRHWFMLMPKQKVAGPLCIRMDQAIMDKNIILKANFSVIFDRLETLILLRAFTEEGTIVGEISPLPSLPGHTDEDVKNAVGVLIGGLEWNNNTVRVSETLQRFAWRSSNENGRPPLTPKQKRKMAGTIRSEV

[14] = test system: Streptococcus; assay: GAS UMAA2166 growth inhibition – luminescence, BacTiterGlo, counter-screen for streptokinase expression inhibitor project, dose response (AID 1915); format: functional, organism-based;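 also: potency for reduction of bacterial viability or growth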
[15] = test system: Streptococcus sp. 'group A'; assay: Streptococcus pyogenes SK(-)GAS viability under kanamycin – luminescence, BacTiterGlo, confirmation, counter-screen for streptokinase expression inhibitor project, dose response (AID 1900); format: functional, organism-based

Row | Structure (SMILES) | IC50 [1] | EC50 [2] | IC50 [3] | IC50 [4] | EC50 [5] | IC50 [6] | IC50 [7] | IC50 [8] | EC50 [9] | EC50 [10] | AC50 [11] | AC50 [12] | IC50 [13] | EC50 [14] | EC50 [15]
1 | O=C(N/N=C/c1ccc(O)cc1O)C(=O)N/N=C/c1ccc(O)cc1O | 38.1 µM (active) | 4.56 µM (active) | 51.3 µM (active) | 2.31 µM (active) | > 100 µM (inactive) | 5.04 µM (active) | 0.604 µM (active) | > 100 µM (inactive) | 7.62 µM (active) |  |  |  |  |  | 
2 | Cc1onc(-c2ccccc2)c1C(=O)NC(=S)NNC(=O)c1ccc(O)cc1O |  |  |  |  |  |  |  |  |  | > 150 µM (not active) | 1.15 µM (active) | 3.95 µM (active) | 11.4 µM (active) | 25.3 µM (active) | 6.86 µM (active)

— ChEMBL document CHEMBL1201862, “PubChem BioAssay data set” (2004)
